# Test results from patent publication US20210169984A1, “SENSITIZING CANCER TO DEATH RECEPTOR AGONISTS WITH KINASE INHIBITORS” (The Johns Hopkins University, priority 2016, published 2021).
# Counter-ions that a name gives are not always drawn.
# What was measured:
# Format in all cases: cell-based, human
# [1] = system: MDA-MB-231 breast cancer cells; experiment: KI library screen for TRAIL sensitization
# From the text: (§1) A library of KIs was screened for TRAIL sensitization in various TRAIL-resistant cancer cells, including: HT29 (CRC), MDA-MB-231 (breast), LNCAP (prostate), DU145 (prostate), PC3 (prostate) and A549 (lung). […] The 355 KIs comprised of compounds targeting diverse kinases, including multi kinases, RTK (receptor kinase tyrosine), PI3K (phosphinistide 3-kinase), aurora kinases, including […] (mitogen-activated protein kinase). […] The interaction between KIs and TRAIL had been previously explored in vitro with the tyrosine KI sorafenib, a drug similar to regorafenib. However, such studies were mostly performed on cellular levels and not in in vivo models, combined with systemically administered recombinant TRAIL. Although a similar structure, regorafenib was newly approved in 2012. The interactions between the three other selected KIs and TRAIL have not been previously reported, in vitro or in vivo.
# [2] = system: A549 lung carcinoma cells; experiment: KI library screen for TRAIL sensitization
# From the text: as §1
# HT29 (CRC) cells = experiment: KI library screen for TRAIL sensitization (KI pretreatment, then TRAILPEG; MTT cell death assay); conditions: for efficacy when combined with TRAILPEG (relative cell death, KI+TRAILPEG / KI alone): HT29 cells pretreated with KI for 24 hours before TRAILPEG; for KIs that sensitize cancer cells to TRAIL-based agents: HT-29 colorectal adenocarcinoma
# Experimental: The screening is performed using an MTT cell death assay in CRC cells with different TRAIL sensitivities.
# [3] = system: LNCAP prostate adenocarcinoma cells; experiment: KI library screen for TRAIL sensitization
# From the text: as §1
# [4] = system: HP LNCAP prostate adenocarcinoma cells; experiment: KI library screen for TRAIL sensitization
# From the text: as §1
# Regorafenib potentiated TRAIL-induced apoptosis in prostate cancer cells (LNCAP, HPLNCAP (High Passages LNCAP), DU-145 and PC-3) when combined with TRAILPEG (1 μg/mL) (FIG. 5). After treating cells with regorafenib (5 μM), caspases and anti-apoptotic proteins were analyzed by western blotting (FIG. 6A-FIG. 6C). […] Data confirmed that FDA-approved KIs or KIs under clinical development synergized with long-acting TRAILPEG by overcoming TRAIL-resistance through unique TRAIL sensitization mechanisms.
molecule,measurement,setting,value
Cc1[nH]nc2ccc(-c3cncc(OC[C@@H](N)Cc4ccccc4)c3)cc12 [A-674563],KIs that sensitize cancer cells to TRAIL-based agents,[1],Example KIs that sensitize cancer cells to TRAIL-based agents.
O=C(NC1CCNCC1)c1[nH]ncc1NC(=O)c1c(Cl)cccc1Cl [AT7519],KIs that sensitize cancer cells to TRAIL-based agents,[2],Example KIs that sensitize cancer cells to TRAIL-based agents.
Cc1cc(Nc2nc(N[C@@H](C)c3ccc(F)cc3)c(C#N)cc2F)[nH]n1 [AZ 960],KIs that sensitize cancer cells to TRAIL-based agents,[1],Example KIs that sensitize cancer cells to TRAIL-based agents.
Cc1ncc(-c2ccnc(Nc3ccc(S(C)(=O)=O)cc3)n2)n1C(C)C [AZD5438],KIs that sensitize cancer cells to TRAIL-based agents,[2],Example KIs that sensitize cancer cells to TRAIL-based agents.
N#CC1(c2ccc(NC(=O)c3cccnc3NCc3ccncc3)cc2)CCCC1 [Apatinib],KIs that sensitize cancer cells to TRAIL-based agents,[2],Example KIs that sensitize cancer cells to TRAIL-based agents.
"Cn1c(=O)n(-c2ccc(C(C)(C)C#N)cc2)c2c3cc(-c4cnc5ccccc5c4)ccc3ncc21 [BEZ235 (NVP-BEZ235, Dactolisib), Dactolisib]","efficacy when combined with TRAILPEG (relative cell death, KI+TRAILPEG / KI alone)",HT29 (CRC) cells,synergistic efficacy
same,KIs that sensitize cancer cells to TRAIL-based agents,HT29 (CRC) cells,Example KIs that sensitize cancer cells to TRAIL-based agents.
CCN1CCN(c2ccc(Nc3cc(N(C)C(=O)Nc4c(Cl)c(OC)cc(OC)c4Cl)ncn3)cc2)CC1 [BGJ398 (NVP-BGJ398)],KIs that sensitize cancer cells to TRAIL-based agents,[2],Example KIs that sensitize cancer cells to TRAIL-based agents.
CCCCOc1c(C(=O)c2c(F)cc(C)cc2F)c[nH]c2nncc1-2 [BMS-265246],KIs that sensitize cancer cells to TRAIL-based agents,[2],Example KIs that sensitize cancer cells to TRAIL-based agents.
same,KIs that sensitize cancer cells to TRAIL-based agents,[1],Example KIs that sensitize cancer cells to TRAIL-based agents.
"CC[C@H](Nc1ncnc2[nH]cnc12)c1nc2cccc(F)c2c(=O)n1-c1ccccc1 [CAL-101 (Idelalisib, GS-1101), Idelalisib]","efficacy when combined with TRAILPEG (relative cell death, KI+TRAILPEG / KI alone)",HT29 (CRC) cells,synergistic efficacy
same,KIs that sensitize cancer cells to TRAIL-based agents,HT29 (CRC) cells,Example KIs that sensitize cancer cells to TRAIL-based agents.
Cc1cc(CN2CCN(c3c(Br)cnc4nc(-c5ccc(N6CCN(C)CC6)cc5)[nH]c34)CC2)no1 [CCT137690],KIs that sensitize cancer cells to TRAIL-based agents,[1],Example KIs that sensitize cancer cells to TRAIL-based agents.
O=c1[nH]c2ccc(Cl)cc2c(N[C@@H]2CN3CCC2CC3)c1-c1nc2ccccc2[nH]1 [CHIR-124],KIs that sensitize cancer cells to TRAIL-based agents,[2],Example KIs that sensitize cancer cells to TRAIL-based agents.
same,KIs that sensitize cancer cells to TRAIL-based agents,[1],Example KIs that sensitize cancer cells to TRAIL-based agents.
N#CCNC(=O)c1ccc(-c2ccnc(Nc3ccc(N4CCOCC4)cc3)n2)cc1 [CYT387],KIs that sensitize cancer cells to TRAIL-based agents,[1],Example KIs that sensitize cancer cells to TRAIL-based agents.
"C=CC(=O)Nc1cc2c(Nc3ccc(F)c(Cl)c3)ncnc2cc1OCCCN1CCOCC1 [Canertinib (CI-1033), Canertinib]",KIs that sensitize cancer cells to TRAIL-based agents,[1],Example KIs that sensitize cancer cells to TRAIL-based agents.
Cc1cc(Nc2cc(N3CCN(C)CC3)nc(/C=C/c3ccccc3)n2)n[nH]1 [ENMD-2076],"efficacy when combined with TRAILPEG (relative cell death, KI+TRAILPEG / KI alone)",HT29 (CRC) cells,synergistic efficacy
same,KIs that sensitize cancer cells to TRAIL-based agents,HT29 (CRC) cells,Example KIs that sensitize cancer cells to TRAIL-based agents.
CN1CC[C@H](c2c(O)cc(O)c3c(=O)cc(-c4ccccc4Cl)oc23)[C@H](O)C1 [Flavopiridol HCl],KIs that sensitize cancer cells to TRAIL-based agents,[2],Example KIs that sensitize cancer cells to TRAIL-based agents.
same,KIs that sensitize cancer cells to TRAIL-based agents,[1],Example KIs that sensitize cancer cells to TRAIL-based agents.
CCc1cc(Nc2nccc(-c3c(-c4ccc(OC)c(C(=O)Nc5c(F)cccc5F)c4)nc4ccccn34)n2)c(OC)cc1N1CCC(N2CCN(S(C)(=O)=O)CC2)CC1 [GSK1904529A],KIs that sensitize cancer cells to TRAIL-based agents,[2],Example KIs that sensitize cancer cells to TRAIL-based agents.
CNC(=O)c1ccc(-c2cnc3ncc(Cc4ccc5ncccc5c4)n3n2)cc1F [INCB28060],KIs that sensitize cancer cells to TRAIL-based agents,[3],Example KIs that sensitize cancer cells to TRAIL-based agents.
Cc1cc(Nc2cc(CN3CCOCC3)c3nc(C)c(Cc4ccc(Cl)cc4F)n3n2)n[nH]1 [LY2784544],KIs that sensitize cancer cells to TRAIL-based agents,[1],Example KIs that sensitize cancer cells to TRAIL-based agents.
"CS(=O)(=O)CCNCc1ccc(-c2ccc3ncnc(Nc4ccc(OCc5cccc(F)c5)c(Cl)c4)c3c2)o1 [Lapatinib (GW-572016) Ditosylate, Lapatinib]",KIs that sensitize cancer cells to TRAIL-based agents,[2],Example KIs that sensitize cancer cells to TRAIL-based agents.
same,KIs that sensitize cancer cells to TRAIL-based agents,[3],Example KIs that sensitize cancer cells to TRAIL-based agents.
"COc1cc2nccc(Oc3ccc(NC(=O)NC4CC4)c(Cl)c3)c2cc1C(N)=O [Lenvatinib (E7080), Lenvatinib]",KIs that sensitize cancer cells to TRAIL-based agents,[4],Example KIs that sensitize cancer cells to TRAIL-based agents.
"CNC(=O)c1nn(C)c2c1C(C)(C)Cc1cnc(Nc3ccc(N4CCN(C)CC4)cc3)nc1-2 [Milciclib (PHA-848125), Milciclib]",KIs that sensitize cancer cells to TRAIL-based agents,[1],Example KIs that sensitize cancer cells to TRAIL-based agents.
"C[C@]1(O)C[C@@H](c2nc(-c3ccc4ccc(-c5ccccc5)nc4c3)c3c(N)nccn32)C1 [OSI-906 (Linsitinib), Linsitinib]",KIs that sensitize cancer cells to TRAIL-based agents,[3],Example KIs that sensitize cancer cells to TRAIL-based agents.
O=C(Nc1ccc(OC(F)(F)F)cc1)c1sccc1NCc1ccnc2ccccc12 [OSI-930],"efficacy when combined with TRAILPEG (relative cell death, KI+TRAILPEG / KI alone)",HT29 (CRC) cells,synergistic efficacy
same,KIs that sensitize cancer cells to TRAIL-based agents,HT29 (CRC) cells,Example KIs that sensitize cancer cells to TRAIL-based agents.
COc1cccc(-c2cc(=O)c3ccccc3o2)c1N [PD98059],"efficacy when combined with TRAILPEG (relative cell death, KI+TRAILPEG / KI alone)",HT29 (CRC) cells,synergistic efficacy
same,KIs that sensitize cancer cells to TRAIL-based agents,HT29 (CRC) cells,Example KIs that sensitize cancer cells to TRAIL-based agents.
CN(c1ncccc1CNc1nc(Nc2ccc3c(c2)CC(=O)N3)ncc1C(F)(F)F)S(C)(=O)=O [PF-00562271],KIs that sensitize cancer cells to TRAIL-based agents,[1],Example KIs that sensitize cancer cells to TRAIL-based agents.
O=C1NCCc2[nH]c(-c3ccncc3)cc21 [PHA-767491],KIs that sensitize cancer cells to TRAIL-based agents,[1],Example KIs that sensitize cancer cells to TRAIL-based agents.
CC(C)CC(=O)Nc1[nH]nc2c1CN(C(=O)C1CCN(C)CC1)C2(C)C [PHA-793887],KIs that sensitize cancer cells to TRAIL-based agents,[1],Example KIs that sensitize cancer cells to TRAIL-based agents.
Cc1ccc([N+](=O)[O-])cc1S(=O)(=O)N(C)/N=C/c1cnc2ccc(Br)cn12 [PIK-75],KIs that sensitize cancer cells to TRAIL-based agents,[1],Example KIs that sensitize cancer cells to TRAIL-based agents.
"CCOc1cc2ncc(C#N)c(Nc3ccc(F)c(Cl)c3)c2cc1NC(=O)/C=C/CN(C)C [Pelitinib (EKB-569), Pelitinib]",KIs that sensitize cancer cells to TRAIL-based agents,[1],Example KIs that sensitize cancer cells to TRAIL-based agents.
"CC[C@H](CO)Nc1nc(NCc2ccccc2)c2ncn(C(C)C)c2n1 [Roscovitine (Seliciclib, CYC202), Roscovitine]",KIs that sensitize cancer cells to TRAIL-based agents,[1],Example KIs that sensitize cancer cells to TRAIL-based agents.
CC(C)(C)c1cnc(CSc2cnc(NC(=O)C3CCNCC3)s2)o1 [SNS-032 (BMS-387032)],KIs that sensitize cancer cells to TRAIL-based agents,[2],Example KIs that sensitize cancer cells to TRAIL-based agents.
same,KIs that sensitize cancer cells to TRAIL-based agents,[1],Example KIs that sensitize cancer cells to TRAIL-based agents.
CCN(CC)CCNC(=O)c1c(C)[nH]c(/C=C2\C(=O)Nc3ccc(F)cc32)c1C [Sunitinib Malate],KIs that sensitize cancer cells to TRAIL-based agents,[3],Example KIs that sensitize cancer cells to TRAIL-based agents.
CCS(=O)(=O)c1cccc(-c2cc(C(=O)NC3CCN(C)CC3)c(C)c3[nH]c4ncc(C)cc4c23)c1 [TAK-901],KIs that sensitize cancer cells to TRAIL-based agents,[1],Example KIs that sensitize cancer cells to TRAIL-based agents.
Cc1cnc(Nc2ccc(N3CCN(C)CC3)cc2)nc1Nc1cccc(S(=O)(=O)NC(C)(C)C)c1 [TG101209],KIs that sensitize cancer cells to TRAIL-based agents,[1],Example KIs that sensitize cancer cells to TRAIL-based agents.
COc1cc2ncc(-c3ccccc3)nc2cc1OC [Tyrphostin AG 1296],KIs that sensitize cancer cells to TRAIL-based agents,[3],Example KIs that sensitize cancer cells to TRAIL-based agents.
CCO.N#CC(=C(/N)Sc1ccccc1N)/C(C#N)=C(\N)Sc1ccccc1N [U0126-EtOH],"efficacy when combined with TRAILPEG (relative cell death, KI+TRAILPEG / KI alone)",HT29 (CRC) cells,synergistic efficacy
same,KIs that sensitize cancer cells to TRAIL-based agents,HT29 (CRC) cells,Example KIs that sensitize cancer cells to TRAIL-based agents.
"CC[C@@H]1C(=O)N(C)c2cnc(Nc3ccc(C(=O)N[C@H]4CC[C@H](N5CCN(CC6CC6)CC5)CC4)cc3OC)nc2N1C(C)C [Volasertib (BI 6727), Volasertib]",KIs that sensitize cancer cells to TRAIL-based agents,[1],Example KIs that sensitize cancer cells to TRAIL-based agents.
COc1cc2ncnc(Nc3ccc(Cl)cc3F)c2cc1OC [ZM 306416],KIs that sensitize cancer cells to TRAIL-based agents,[3],Example KIs that sensitize cancer cells to TRAIL-based agents.
CHIR-98014,KIs that sensitize cancer cells to TRAIL-based agents,[1],Example KIs that sensitize cancer cells to TRAIL-based agents.
